Reference: patent EP0120757A1, “Compositions in the form of microglobules consisting of partially quaternised, tertiary polyamines, and containing hydrophobic compounds, their preparation and application” (Etablissement Public dit: CENTRE NATIONAL DE LA RECHERCHE …, priority 1983, dated 1984)
≈ marks a conversion by molar mass, not a printed value. One block for each molecule: values may come before it.

What was measured:
[1] = Solubilisation of progestérone in aqueous Q-P(TDAE)19 microglobule solution, assayed by circular dichroism at 285 nm after filtration; type: physicochemical; settings: for progestérone (microgrammes/ml): per ml of filtrate; for quantité de progestérone dissoute: Example 3, Q-P(TDAE)19 TN = 0,125 N, pH = 7,7, β = 0,06
Procedure: A) Les essais sont effectués à partir d'une solution basique de poly(diéthylaminométhyl thiiranne) quaternisée à 19% Q-P(TDAE)19 de formule [drawing 4] X étant un anion (par exemple un anion halogénure tel que chlorure ou bromure), à une concentration TN = (2,5+ 0,1)x 10^-2 N (polymère = 3,77mg de polymère sous forme basique par ml de solution).
Cette solution est obtenue de la façon suivante: • 270mg de chlorhydrate de Q-P(TDAE)19 sont dissous dans 10ml d'eau distillée, puis passés sur une résine échangeuse d'anions (BIO-RAD AG 1-x4-20-50 mesh-) sous forme OH et récupérés dans une fiole jaugée de 50ml.
Des échantillons contenant 5m1 de cette solution basique sont ajustés, par addition de HC1 0,5N, aux pH correspondant à différentes valeurs du degré de protonation apparent de la fonction amine tertiaire résiduelle dans le domaine 0 < β< 1. On ajoute 5mg de progestérone en poudre à chaque échantillon et les mélanges sont soit soniqués pendant 5 minutes soit agités pendant 48 heures.
Après dissolution, chaque échantillon est filtré sur filtre millipore (0,45 micromètres). Les filtrats sont clairs et limpides. Le système "véhicule-drogue" peut être conservé de deux façons différentes: • - en solution, pendant quelques mois au réfrigérateur • - sous forme solide, en lyophilisant les filtrats et en les conservant sous vide. Le filtrat lyophilisé se solubilise rapidement en solution aqueuse.
Le dosage de la progestérone solubilisée ne peut être fait que par extraction de cette dernière des microémulsions. Cette extraction est obtenue par éclatement des véhicules globulaires dans un mélange filtrat-éthanol absolu dans le rapport V/V : 20/80. 1ml de chaque filtrat est dilué à 5ml par addition d'éthanol. Les différents filtrats présentent dans la région 350-250nm des bandes dichrolques caractéristiques de la progestérone. Le signal de dichroisme circulaire à λ = 285nm est utilisable pour évaluer la quantité de progestérone présente dans chaque filtrat par comparaison avec les ellipticités de solutions standard de progestérone dissoute dans le même milieu solvant.
Le tableau suivant donne les quantités de progestérone solubilisée (en microgramme par ml de filtrat) en fonction du pH et du degré de protonation β pour chaque essai.
On opère comme à l'exemple 1 mais les essais sont effectués à partir d'une concentration TN = 0,15N de Q-P(TDAE)19 sous forme basique. Des échantillons contenant 2ml de cette solution sont ajustés à différents β par addition de HC1 N et additionnés de 5mg de progestérone. Après sonication pendant 5 minutes, les mélanges sont filtrés sur filtre millipore (0,45 micromètre). Le dosage de la progestérone solubilisée est fait comme précédemment. 0,2ml de chaque filtrat sont dilués à 2ml par de l'éthanol absolu. Les ellipticités sont mesurées â λ = 285nm et comparées aux solutions standard de progestérone effectuées dans les mêmes conditions.
Le tableau suivant donne les quantités de progestérone solubilisée (en microgrammes par ml de filtrat) en fonction du pH et du degré de protonation S.
Deux essais sont réalisés dans les mêmes conditions: concentration en polymère, β et pH identiques mais on ajoute au deuxième essai, du chlorure de sodium de telle façon que la solution soit à 0,9X en NaCl.
Deux échantillons contenant 2m1 de solution basique de Q-P(TDAE)19 (TN = 0,125 N) sont ajustés à pH = 7,7 et à β= 0,06 par addition de 0,06ml de HCl N. Dans le deuxième échantillon, on ajoute 18mg de NaCl. 5mg de progestérone sont additionnés à chaque échantillon. Les mélanges sont soniqués pendant 5 minutes. Le protocole de filtration et de dosage de la progestérone solubilisée est le même qu'à l'exemple 2.

[2] = Solubility of the hydrophobic drug in water without polymer
[3] = Solubilisation of griseofulvine in aqueous Q-P(TDAE)19 microglobule solution, assayed by circular dichroism at 294 nm after filtration; type: physicochemical; settings: Example 5, Q-P(TDAE)19 TN = 2,5 x 10^-2 N, per ml of filtrate
Procedure: Les essais sont effectués à partir d'une solution basique de Q-P(TDAE)19 (TN= 2,5 x 10^-2 N). Des échantillons contenant 5ml de cette solution basique sont ajustés aux pH correspondant aux différents β par addition de HC1 0,5N).
7mg de griseofulvine en poudre sont ajoutés à chaque échantillon. On laisse soniquer pendant 5 minutes et on filtre les mélanges sur filtre millipore (0,45 micromètre). Les filtrats limpides sont conservés de la même façon que pour les exemples 1 et 2. Le dosage de la griseofulvine solubilisée est effectué dans le milieu solvant eau-acétonitrile : 20/80, V/V. On prélève dans chaque essai, 1ml de filtrat qui est dilué à 5ml par de l'acétonitrile. Les ellipticités des différentes solutions sont mesurées à λ = 294nm et comparées à des solutions standard de griseofulvine dissoutes dans le même milieu solvant.
Le tableau suivant donne les quantités de griseofulvine dissoute (en microgrammes par ml de filtrat) en fonction du pH et du degré de protonation β . La solubilité de la griseofulvine dans l'eau est de l'ordre de 13 à 15 microgrammes par ml.

- progestérone (microgrammes/ml) ([1]; Example 1, Q-P(TDAE)19 TN = 2,5 x 10^-2 N, essai 1, pH 7,5, β 0,07): 75 microgrammes/ml
- progestérone (microgrammes/ml) ([1]; Example 1, Q-P(TDAE)19 TN = 2,5 x 10^-2 N, essai 2, pH 6,97, β 0,135): 62-64 microgrammes/ml
- progestérone (microgrammes/ml) ([1]; Example 1, Q-P(TDAE)19 TN = 2,5 x 10^-2 N, essai 3, pH 6,95, β 0,20): 48-50 microgrammes/ml
- progestérone (microgrammes/ml) ([1]; Example 1, Q-P(TDAE)19 TN = 2,5 x 10^-2 N, essai 4, pH 6,95, β 0,26): 38 microgrammes/ml
- progestérone (microgrammes/ml) ([1]; Example 1, Q-P(TDAE)19 TN = 2,5 x 10^-2 N, essai 5, pH 6,95, β 0,38): 26 microgrammes/ml
- progestérone (microgrammes/ml) ([1]; Example 1, Q-P(TDAE)19 TN = 2,5 x 10^-2 N, essai 6, pH 6,80, β 0,63): 14-16 microgrammes/ml
- progestérone (microgrammes/ml) ([1]; Example 1, Q-P(TDAE)19 TN = 2,5 x 10^-2 N, essai 7, pH 6,55, β 0,75): 11-12 microgrammes/ml
- progestérone (microgrammes/ml) ([1]; Example 1, Q-P(TDAE)19 TN = 2,5 x 10^-2 N, essai 8, pH 6,15, β 0,88): 11-12 microgrammes/ml
- progestérone (microgrammes/ml) ([1]; Example 2, Q-P(TDAE)19 TN = 0,15N, essai 1, pH 7,50, β 0,13): 315 microgrammes/ml
- progestérone (microgrammes/ml) ([1]; Example 2, Q-P(TDAE)19 TN = 0,15N, essai 2, pH 7,50, β 0,17): 300 microgrammes/ml
- progestérone (microgrammes/ml) ([1]; Example 2, Q-P(TDAE)19 TN = 0,15N, essai 3, pH 7,50, β 0,26): 225 microgrammes/ml
- progestérone (microgrammes/ml) ([1]; Example 2, Q-P(TDAE)19 TN = 0,15N, essai 4, pH 7,40, β 0,47): 185-190 microgrammes/ml
- progestérone (microgrammes/ml) ([1]; Example 2, Q-P(TDAE)19 TN = 0,15N, essai 5, pH 7,36, β 0,51): 80 microgrammes/ml
- progestérone (microgrammes/ml) ([1]; Example 2, Q-P(TDAE)19 TN = 0,15N, essai 6, pH 7,25, β 0,58): 70 microgrammes/ml
- progestérone (microgrammes/ml) ([1]; Example 2, Q-P(TDAE)19 TN = 0,15N, essai 7, pH 4,8, β 0,98): 10 à 12 microgrammes/ml
- quantité de progestérone dissoute ([1]; with NaCl, solution at 0,9X en NaCl (18mg in 2ml)): 375 microgrammes par ml de filtrat
- quantité de progestérone dissoute ([1]; without NaCl): 375 microgrammes par ml de filtrat
- solubilité dans l'eau ([2]; no polymer, approximate values, no source stated): 11 à 12 microgrammes par ml
Molecule: progestérone

- solubility [2]: 13 to 15 µg/mL (≈ 36.9 to 42.5 µM)
- griseofulvine (microgrammes/ml) ([3]; essai 1, pH 7,6, β 0,02): 47 microgrammes/ml
- griseofulvine (microgrammes/ml) ([3]; essai 2, pH 7,08, β 0,093): 43 microgrammes/ml
- griseofulvine (microgrammes/ml) ([3]; essai 3, pH 7,0, β 0,185): 36 microgrammes/ml
- griseofulvine (microgrammes/ml) ([3]; essai 4, pH 6,95, β 0,26): 30 microgrammes/ml
- griseofulvine (microgrammes/ml) ([3]; essai 5, pH 6,95, β 0,32): 26 microgrammes/ml
- griseofulvine (microgrammes/ml) ([3]; essai 6, pH 6,95, β 0,42): 22 microgrammes/ml
- griseofulvine (microgrammes/ml) ([3]; essai 7, pH 6,83, β 0,51): 18 microgrammes/ml
- griseofulvine (microgrammes/ml) ([3]; essai 8, pH 6,67, β 0,673): 15 microgrammes/ml
- griseofulvine (microgrammes/ml) ([3]; essai 9, pH 6,20, β 0,89): 15 microgrammes/ml
- griseofulvine (microgrammes/ml) ([3]; essai 10, pH 4,5 à 4,6, β 1): 15 microgrammes/ml
Molecule: COC1=CC(=O)C[C@@H](C)[C@]12Oc1c(Cl)c(OC)cc(OC)c1C2=O [griseofulvine]
